Here are results for 32 compounds from US10307413B2, “Tetrahydro- and dihydro-isoquinoline PRMT5 inhibitors and uses thereof” (Epizyme, Inc., priority 2013, dated 2019).

One experiment has as its target PRMT5/MEP50 (Homo sapiens (Human), UniProt O14744). The experiment can be described thus: PRMT5 Biochemical Assay (PRMT5/MEP50 enzyme assay on peptide substrate, 3H-SAM Flashplate). As to conditions: PRMT5 biochemical assay. A digest of the protocol: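 Radiometric methylation of a biotin-tagged H4(1-15) peptide by human PRMT5/MEP50 from baculovirus/Sf9, with ³H-SAM incorporation read on streptavidin Flashplates. Buffer: Bicine pH 7.6, TCEP, BSG, Tween20; compound preincubated 30 min at 25 °C; stopped with 600 µM final unlabeled SAM. DMSO and SAH controls; IC50 from fitted % inhibition.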

The subject of experiment [1] is symmetric di-methyl arginine in Z-138 cells. Briefly: Z-138 Methylation Assay (In Cell Western for symmetric di-methyl arginine and DNA content). It counts as cell-based. Particulars: Homo sapiens, In Cell Western methylation, read-out: ICW EC50. In a few lines:
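Z-138 cells (50,000 cells/mL) treated with compound 96 h at 37 °C, then fixed and stained for symmetric di-methyl arginine (800 nm) with DRAQ5 DNA counterstain (700 nm) on Licor Odyssey.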

The subject of a further experiment is Z-138 cell line. The experiment can be described thus: Z-138 Proliferation Assay (Cell Titer Glo, 5 days). The class given is cell-based. As to conditions: Homo sapiens, 120 h; Z-138 cells, 5 days, Cell Titer Glo; read-out: Proliferation EC50. In a few lines: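 Z-138 cells exposed 5 days at 37 °C, 5% CO2 to nine-point 3-fold dilutions (final top 20 μM, 0.2% DMSO), in triplicate. Viability read as ATP by CellTiter-Glo luminescence; IC50 from 4-parameter fit of normalized dose-response curves.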
Background: Cellular ATP, detected with luciferase, serves as a proxy for viable cell number.

PRMT5/MEP50, sequence (O14744 other isoform, or with tags, fused parts or gaps): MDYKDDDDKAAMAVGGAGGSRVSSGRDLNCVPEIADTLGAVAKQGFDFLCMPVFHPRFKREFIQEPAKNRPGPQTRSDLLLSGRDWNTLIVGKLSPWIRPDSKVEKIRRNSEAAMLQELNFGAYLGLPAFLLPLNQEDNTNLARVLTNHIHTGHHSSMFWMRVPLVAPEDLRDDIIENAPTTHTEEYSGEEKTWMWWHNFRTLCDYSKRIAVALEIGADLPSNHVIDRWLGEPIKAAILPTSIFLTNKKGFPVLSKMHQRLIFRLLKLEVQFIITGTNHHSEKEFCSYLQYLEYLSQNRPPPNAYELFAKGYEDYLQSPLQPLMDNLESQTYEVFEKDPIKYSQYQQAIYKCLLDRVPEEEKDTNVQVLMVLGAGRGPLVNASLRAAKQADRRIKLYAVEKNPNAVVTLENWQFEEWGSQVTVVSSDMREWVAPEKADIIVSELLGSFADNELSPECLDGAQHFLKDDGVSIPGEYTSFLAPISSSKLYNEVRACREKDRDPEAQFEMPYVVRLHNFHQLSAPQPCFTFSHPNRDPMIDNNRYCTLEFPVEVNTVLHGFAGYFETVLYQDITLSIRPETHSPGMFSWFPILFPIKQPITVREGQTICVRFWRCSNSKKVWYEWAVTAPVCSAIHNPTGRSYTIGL
PRMT5/MEP50, sequence (Q9BQA1 other isoform, or with tags, fused parts or gaps partner): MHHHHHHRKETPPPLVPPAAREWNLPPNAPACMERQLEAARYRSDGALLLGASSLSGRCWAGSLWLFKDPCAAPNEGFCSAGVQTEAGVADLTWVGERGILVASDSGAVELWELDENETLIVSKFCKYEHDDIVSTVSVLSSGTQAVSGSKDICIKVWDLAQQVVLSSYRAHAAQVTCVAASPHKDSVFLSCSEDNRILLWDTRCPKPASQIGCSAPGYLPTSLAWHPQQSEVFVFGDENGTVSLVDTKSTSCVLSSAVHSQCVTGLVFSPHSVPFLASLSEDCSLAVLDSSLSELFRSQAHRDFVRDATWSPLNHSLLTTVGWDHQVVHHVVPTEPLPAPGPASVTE

The term IC50 denotes the concentration that gives 50% inhibition. With `CC(=O)N1CCN(c2nc(NC3COC3)cc(C(=O)NC[C@H](O)CN3CCc4ccccc4C3)n2)CC1` [Compound 497], the IC50 at PRMT5/MEP50 is under 100 nM. Also, the EC50 (in experiment [1]; in the experiment on Z-138 cell line) was under 100 nM in each case.

Turning to `O=C(NC[C@H](O)CN1CCc2ccccc2C1)c1cc(NC2COC2)nc(N2CCN(C(=O)C3CC3)CC2)n1` [Compound 498], the IC50 at PRMT5/MEP50 was under 100 nM. Further, the EC50 (in experiment [1]; in the experiment with Z-138 cell line) was under 100 nM each time.

As for `CS(=O)(=O)N1CCN(c2nc(NC3COC3)cc(C(=O)NC[C@H](O)CN3CCc4ccccc4C3)n2)CC1` [Compound 499], on PRMT5/MEP50, the IC50 is under 100 nM. Moreover, the EC50 was under 100 nM in experiment [1] and 101 to 1000 nM in the experiment on Z-138 cell line.

Regarding `CC(C)N1CCN(c2nc(NC3CNC3)cc(C(=O)NC[C@H](O)CN3CCc4ccccc4C3)n2)CC1` [Compound 500], at PRMT5/MEP50, the IC50 was under 100 nM. In addition, the EC50 in experiment [1] lay in the range of 101 to 1000 nM; in the experiment on Z-138 cell line it was 10000 to 50000 nM.

With `COc1nc(NC2CNC2)cc(C(=O)NC[C@H](O)CN2CCc3ccccc3C2)n1` [Compound 501], on PRMT5/MEP50, the IC50 was under 100 nM. For the same compound, the EC50 in experiment [1] lay in the range of 101 to 1000 nM; in the experiment on Z-138 cell line it was 1000 to 10000 nM.

`O=C(NC[C@H](O)CN1CCc2ccccc2C1)c1cc(NC2CNC2)nc(N2CCC2)n1` [Compound 502]: the IC50 at PRMT5/MEP50 was under 100 nM. In addition, the EC50 in experiment [1] is 101 to 1000 nM; in the experiment with Z-138 cell line, 1000 to 10000 nM.

Consider `CCCC(=O)N1CC(Nc2cc(C(=O)NC[C@H](O)CN3CCc4ccccc4C3)ccn2)C1` [Compound 503], for which the IC50 on PRMT5/MEP50 was under 100 nM. Moreover, the EC50 (in experiment [1]; in the experiment with Z-138 cell line) was under 100 nM each time.

In the case of `CC(C)CC(=O)N1CC(Nc2cc(C(=O)NC[C@H](O)CN3CCc4ccccc4C3)ccn2)C1` [Compound 504], on PRMT5/MEP50, the IC50 is under 100 nM. In addition, the EC50 (in experiment [1]; in the experiment with Z-138 cell line) was under 100 nM in each case.

In the case of `CC(C)(C)C(=O)N1CC(Nc2cc(C(=O)NC[C@H](O)CN3CCc4ccccc4C3)ccn2)C1` [Compound 505], the IC50 at PRMT5/MEP50 is under 100 nM. For the same compound, the EC50 is under 100 nM in experiment [1] and 101 to 1000 nM in the experiment with Z-138 cell line.

With `CNC(=O)[C@H]1C[C@H](Nc2cc(C(=O)NC[C@H](O)CN3CCc4ccccc4C3)ncn2)C1` [Compound 506], the IC50 on PRMT5/MEP50 is under 100 nM. Also, the results for the EC50 (in experiment [1]; with Z-138 cell line) were under 100 nM and 101 to 1000 nM, respectively.

Turning to `CN(C)C(=O)[C@H]1C[C@H](Nc2cc(C(=O)NC[C@H](O)CN3CCc4ccccc4C3)ncn2)C1` [Compound 507], the IC50 at PRMT5/MEP50 is under 100 nM. Besides, the EC50 in experiment [1] is under 100 nM; in the experiment on Z-138 cell line it was 101 to 1000 nM.

Turning to `O=C(NC[C@H](O)CN1CCc2ccccc2C1)c1cc(N[C@H]2C[C@H](C(=O)N3CCC3)C2)ncn1` [Compound 509], the half-maximal inhibitory concentration (IC50) at PRMT5/MEP50 is under 100 nM. Further, the EC50 (in experiment [1]; with Z-138 cell line) was under 100 nM in each case.

For the compound `O=C(NC[C@H](O)CN1CCc2ccccc2C1)c1cc(N[C@H]2C[C@H](C(=O)N3CCCCC3)C2)ncn1` [Compound 511], the IC50 at PRMT5/MEP50 is under 100 nM. Also, the EC50 (in experiment [1]; with Z-138 cell line) was under 100 nM throughout.

Take `CNC(=O)[C@H]1C[C@@H](Nc2cc(C(=O)NC[C@H](O)CN3CCc4ccccc4C3)ncn2)C1` [Compound 513]: at PRMT5/MEP50, the IC50 is under 100 nM. For the same compound, the figures for the EC50 (in experiment [1]; with Z-138 cell line) were under 100 nM and 101 to 1000 nM, respectively.

Regarding `CN(C)C(=O)[C@H]1C[C@@H](Nc2cc(C(=O)NC[C@H](O)CN3CCc4ccccc4C3)ncn2)C1` [Compound 515], the IC50 on PRMT5/MEP50 was under 100 nM. The figures for the EC50 (in experiment [1]; in the experiment on Z-138 cell line) were under 100 nM and 101 to 1000 nM, respectively.

As to `O=C(NC[C@H](O)CN1CCc2ccccc2C1)c1cc(N[C@H]2C[C@@H](C(=O)N3CCC3)C2)ncn1` [Compound 517], the IC50 at PRMT5/MEP50 is under 100 nM. Besides, the EC50 in experiment [1] is under 100 nM; in the experiment on Z-138 cell line, 101 to 1000 nM.

Regarding `O=C(NC[C@H](O)CN1CCc2ccccc2C1)c1cc(N[C@H]2C[C@@H](C(=O)N3CCCCC3)C2)ncn1` [Compound 519], the IC50 at PRMT5/MEP50 is under 100 nM. Further, the EC50 in experiment [1] was under 100 nM; with Z-138 cell line, 101 to 1000 nM.

Consider `O=C(NC[C@H](O)CN1CCc2ccccc2C1)c1cc(N[C@H]2C[C@H](O)C2)ncn1` [Compound 521], for which the IC50 at PRMT5/MEP50 is under 100 nM. Besides, the EC50 in experiment [1] was under 100 nM; in the experiment with Z-138 cell line, 101 to 1000 nM.

With `CC(C)(C)c1nc(NC2CNC2)cc(C(=O)NC[C@H](O)CN2CCc3ccccc3C2)n1` [Compound 522], on PRMT5/MEP50, the IC50 is under 100 nM. For the same compound, the EC50 was under 100 nM in experiment [1] and 1000 to 10000 nM in the experiment with Z-138 cell line.

As for `COC(CNC(=O)c1cc(NC2COC2)ncn1)CN1CCc2ccccc2C1` (stereo not drawn) [Compound 523], the IC50 at PRMT5/MEP50 fell in the range of 1000 to 10000 nM. In addition, the EC50 in experiment [1] is over 1000 nM; with Z-138 cell line, over 5000 nM.

Consider `CC(=O)N1CC(Nc2cc(C(=O)NC(C)C(O)CN3CCc4ccccc4C3)ncn2)C1` (stereo not drawn) [Compound 524], for which, on PRMT5/MEP50, the IC50 was in the range of 101 to 1000 nM. Further, the EC50 in experiment [1] was 101 to 1000 nM; in the experiment on Z-138 cell line, over 5000 nM.

For the compound `CN(C)CCN(C)c1nc(NC2COC2)cc(C(=O)NC[C@H](O)CN2CCc3ccccc3C2)n1` [Compound 525], the IC50 on PRMT5/MEP50 is under 100 nM. For the same compound, the EC50 in experiment [1] was under 100 nM; in the experiment on Z-138 cell line, 101 to 1000 nM.

In the case of `O=C(NC[C@H](O)CN1CCc2ccccc2C1)c1cc(NC2COC2)nc(N2CCC2)n1` [Compound 526], on PRMT5/MEP50, the IC50 is under 100 nM. Further, the EC50 in experiment [1] is under 100 nM; in the experiment on Z-138 cell line it was 101 to 1000 nM.

`CC(C)(C)c1nc(NC2COC2)cc(C(=O)NC[C@H](O)CN2CCc3ccccc3C2)n1` [Compound 527]: the IC50 on PRMT5/MEP50 is under 100 nM. Moreover, the EC50 in experiment [1] was under 100 nM; in the experiment with Z-138 cell line, 101 to 1000 nM.

As for `CN(C)CCN(C)c1nc(NC2CNC2)cc(C(=O)NC[C@H](O)CN2CCc3ccccc3C2)n1` [Compound 528], the IC50 on PRMT5/MEP50 is under 100 nM. For the same compound, the EC50 (in experiment [1]; in the experiment with Z-138 cell line) was 101 to 1000 nM in each case.

As to `CN(C)c1nc(NC2CNC2)cc(C(=O)NC[C@H](O)CN2CCc3ccccc3C2)n1` [Compound 529], the IC50 on PRMT5/MEP50 is under 100 nM. Besides, the EC50 (in experiment [1]; with Z-138 cell line) was 101 to 1000 nM in each case.

`O=C(NC[C@H](O)CN1CCc2ccccc2C1)c1ccnc(NC2CN(C(=O)C3CCC3)C2)c1` [Compound 530]: the IC50 on PRMT5/MEP50 is under 100 nM. Further, the EC50 (in experiment [1]; in the experiment with Z-138 cell line) was under 100 nM throughout.

On to `COCC(=O)N1CC(Nc2cc(C(=O)NC[C@H](O)CN3CCc4ccccc4C3)ncn2)C1` [Compound 531], for which, on PRMT5/MEP50, the IC50 is under 100 nM. The EC50 in experiment [1] was under 100 nM; in the experiment with Z-138 cell line it was 101 to 1000 nM.

Take `NC(=O)CN1CCC(Nc2cc(C(=O)NC[C@H](O)CN3CCc4ccccc4C3)ncn2)CC1` [Compound 532]: the IC50 at PRMT5/MEP50 is under 100 nM. The values for the EC50 (in experiment [1]; in the experiment on Z-138 cell line) were under 100 nM and 101 to 1000 nM, respectively.

With `CNC(=O)CN1CCC(Nc2cc(C(=O)NC[C@H](O)CN3CCc4ccccc4C3)ncn2)CC1` [Compound 533], the IC50 at PRMT5/MEP50 is under 100 nM. The EC50 (in experiment [1]; with Z-138 cell line) was under 100 nM throughout.

`CC(NC(=O)c1cc(NC2CCNCC2)ncn1)C(O)CN1CCc2ccccc2C1` (stereo not drawn) [Compound 534]: the IC50 at PRMT5/MEP50 is 101 to 1000 nM. For the same compound, the EC50 was over 1000 nM in experiment [1] and over 5000 nM with Z-138 cell line.

With `CC(NC(=O)c1cc(NC2CCN(C)CC2)ncn1)C(O)CN1CCc2ccccc2C1` (stereo not drawn) [Compound 535], the IC50 at PRMT5/MEP50 was 101 to 1000 nM. The EC50 in experiment [1] is 101 to 1000 nM; with Z-138 cell line it was over 5000 nM.
